Values quoted from earlier work in patent EP0276807A2, “Lipid regulating compositions” (WARNER-LAMBERT COMPANY, priority 1987, dated 1988).
pIC50: −log10 of the molar value.

Molecular target: T1, HMG-CoA reductase (Homo sapiens, UniProt P04035)
T1 sequence (P04035 1-888): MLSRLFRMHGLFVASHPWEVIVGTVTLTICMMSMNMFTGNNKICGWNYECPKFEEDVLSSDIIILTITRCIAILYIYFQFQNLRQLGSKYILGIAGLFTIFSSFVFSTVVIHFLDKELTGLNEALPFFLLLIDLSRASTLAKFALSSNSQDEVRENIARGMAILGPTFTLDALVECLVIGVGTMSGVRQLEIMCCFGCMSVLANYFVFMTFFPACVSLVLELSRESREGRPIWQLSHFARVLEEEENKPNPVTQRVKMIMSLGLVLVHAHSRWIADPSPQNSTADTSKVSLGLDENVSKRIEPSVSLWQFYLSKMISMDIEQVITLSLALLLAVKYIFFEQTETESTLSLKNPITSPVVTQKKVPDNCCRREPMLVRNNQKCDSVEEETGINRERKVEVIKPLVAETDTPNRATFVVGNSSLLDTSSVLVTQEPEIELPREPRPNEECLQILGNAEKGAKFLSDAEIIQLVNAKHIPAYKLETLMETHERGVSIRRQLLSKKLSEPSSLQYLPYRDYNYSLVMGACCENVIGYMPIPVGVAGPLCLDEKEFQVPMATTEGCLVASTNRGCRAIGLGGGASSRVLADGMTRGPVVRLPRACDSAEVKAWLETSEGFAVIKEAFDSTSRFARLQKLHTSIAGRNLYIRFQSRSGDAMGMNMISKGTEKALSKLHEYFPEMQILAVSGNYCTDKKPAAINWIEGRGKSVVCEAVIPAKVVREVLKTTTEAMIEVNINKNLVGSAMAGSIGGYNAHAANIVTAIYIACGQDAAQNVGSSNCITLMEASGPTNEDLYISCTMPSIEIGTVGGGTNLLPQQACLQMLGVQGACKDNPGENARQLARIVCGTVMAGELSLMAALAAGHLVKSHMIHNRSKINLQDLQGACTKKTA
Settings: read-out: IC₅₀ value for inhibition of HMG-CoA reductase

CCC(C)C(=O)OC1CC(C)C=C2C=CC(C)C(CCC(O)CC(O)CC(=O)O)C21 (stereo not drawn) [Mevinolinic acid, [1S-[1α(βS*,δS*),2α,6β,8β(R*)8aα]]-1,2,6,7,8,8a-hexahydro-β,δ-dihydroxy-2,6-dimethyl-8-(2-methyl-1-oxobutoxy)-1-naphthaleneheptanoic acid]
pIC50: ~8.25
